Results as given in PMC7274485, “A symbiotic bacterium of shipworms produces a compound with broad spectrum anti-apicomplexan activity” (PLoS Pathogens, 2020).
Entries after “also recorded” stand apart in the source; their conditions may differ.

Columns and labels:
[1] = test system: extracellular T. gondii tachyzoites; test: Extracellular T. gondii tachyzoites treated 2 hours, washed, then infection of HFF quantified by luciferase; assay type: cell-based, Toxoplasma gondii
Protocol: Because we had tested the compound against intracellular parasites, it was unclear if trtE was exerting a direct effect on the parasites, or if trtE acted indirectly on the parasites by modulating host cell pathways. […] Growth of the parasites was measured 24 hours later by luciferase expression.
To determine the direct effect of trtE on T. gondii, RH GFP/Luc tachyzoites that had exited from host cells were combined with trtE at varying concentrations and incubated at 37°C and 5% CO2 for 2 hours. Tachyzoites in 0.01% DMSO were run in parallel. The parasites were washed to remove compound and added to 96-well plates containing confluent HFFs. Growth was monitored 24 hours later using Bright-glo Luciferase assay system (Promega). Percent inhibition was calculated as ((luciferase reading DMSO treated parasites—luciferase reading of trtE treated parasites)/ luciferase reading DMSO treated parasites)*100.

[2] = test system: Babesia bovis; test: B. bovis-infected erythrocyte proliferation, SYBR green incorporation; assay type: cell-based; details: in Bos taurus, infected erythrocytes, 72 hours, read-out: EC50 against B. bovis
Protocol: (§1) B. bovis and B. bigemina inhibitor response assays were adapted from components of [79–81]. B. bovis and B. bigemina parasites were maintained in bovine erythrocytes under microaerophilic stationary phase conditions in vitro as described elsewhere. Prior to use in growth studies parasites were grown in erythrocytes from which leukocytes were depleted. Cultures were set up at 0.20% parasitized erythrocytes, in quadruplicate, in complete medium supplemented with trtE. Final concentration of DMSO in all cultures was 1%, and was consistent throughout. Following 72h growth under 90% nitrogen, 5% oxygen, 5% carbon dioxide cells were harvested by thorough resuspension, and transferred to a black, opaque 96-well plate. Cells were freeze-thawed at -80°C overnight, then mixed with an equal volume of SYBR Green lysis buffer. Lysis buffer was composed of 20 mM Tris, pH 7.5, 5 mM EDTA, 0.008% (w/v) saponin, 0.08% (v/v) NP40, and contained 0.2 μl 10,000x SYBR Green I dye ml^-1 (S7563; Invitrogen; Carlsbad, CA). Plates were incubated for one hour at room temperature in the dark prior to reading in a microplate reader, at 485 nm excitation and 528 nm emission wavelengths.

[3] = test system: B. bigemina; test: B. bigemina-infected erythrocyte proliferation, SYBR green incorporation; assay type: cell-based; details: Babesia bigemina, infected erythrocytes, 72 hours, read-out: EC50 against B. bigemina
Protocol: as §1

[4] = test system: Cryptosporidium parvum; test: Neonatal mouse model of Cryptosporidium parvum infection; assay type: in vivo, mice; details: for Number of parasites in the intestine (histology infection score): 2 mg/kg orally every 12 hours, four doses, 5 days post infection, purification method 1
Protocol: Of all apicomplexans that infect both humans and domesticated animals, Cryptosporidium is a particular challenge for human and veterinary medicine as there is currently no effective treatment for this parasite. We chose to evaluate the in vivo efficacy of trtE using a neonatal mouse model of C. parvum infection. […] In a preliminary experiment, ten, 8 day old mice were infected with C. parvum and then treated with four doses of 2 mg/kg of trtE (purification method 1) given orally every 12 hours for 2 days. Control mice received DMSO vehicle control. Five days post infection, mice were euthanized and the intestines processed for histology. Infection was scored by visual evaluation of infection intensity throughout the intestine by an investigator blinded to treatment. […] Eight-day-old mice, infected with C. parvum, were treated orally twice daily with trtE at 0.4, 4 or 40 mg/kg beginning two days post-infection and continuing for 2 days. On day 5, mice were euthanized and intestines processed for quantitative PCR to quantify infection.
8-day-old mice were infected with 5x10^4 oocysts by oral gavage. In the initial preliminary experiment using trtE purified by method 1, mice were treated 48 hrs post infection with 2 mg/kg trtE every 12 hours by oral gavage for a total of 4 treatments. Control mice received vehicle control (DMSO diluted in DMEM containing 10% fetal calf serum). Mice were sacrificed 5 days post infection and intestines prepared for histological evaluation. Slides were blinded and the intensity of infection scored in the terminal jejunum, ileum, caecum and colon as previously described. Infection intensity scores for each region were added together to give a total infection score for the animal.
In the second set of experiments, mice were infected and treated as before, with 0.4, 4 or 40 mg/kg of trtE purified using method 2. Control mice received vehicle control in parallel. Mice were sacrificed 5 days post-infection and infection quantified by qPCR as previously described. The experiment was conducted three times.

[5] = test system: Gram positive bacteria; details: at μM concentrations; cited from earlier work
[6] = test system: Gram negative bacteria; details: at μM concentrations; cited from earlier work
[7] = test system: Human Foreskin fibroblasts; test: Cytotoxicity for host cells, cellular ATP (CellTiter-Glo): HFF
Protocol: Toxicity was evaluated by measuring cellular ATP concentrations.
HCT8, HFF and BT cells were seeded in 96-well plates to achieve 20–30% confluence after 24 hours of growth.

**Q.** Which results are given for `CC1CCC=CC=CCCC(O)CC(=O)CC2CCC(C)C3(O2)O[B-]24OC(C(=O)O1)C1(OC(CCC1C)CC(=O)CC(O)CCC=CC=CCCC(C)OC(=O)C3O2)O4` (centres unmarked) [trtE, tartrolon E]?
**A.** EC50 ([1]; Toxoplasma gondii, RH strain tachyzoites treated 2 hours, washed, growth in HFF after 24 hours, read-out: EC50 against extracellular T. gondii tachyzoites): 3.1 nM; Effect of excess K+ ions on trtE activity against extracellular tachyzoites ([1]; addition of excess K+ ions, no positive control): had no effect; EC50 [2]: 15.9 nM; EC50 [3]: 9.3 nM; Number of parasites in the intestine (histology infection score) [4]: significantly reduced the number of parasites; Number of parasites in the intestine (histology infection score) ([4]; listed as TrtE): significantly reduced the number of parasites in the intestine; Reduction of intestinal Cryptosporidium infection (qPCR) ([4]; 4 mg/kg orally twice daily for 2 days from two days post-infection, day 5, purification method 2): 85%; Intestinal Cryptosporidium infection (qPCR) ([4]; 40 mg/kg orally twice daily for 2 days from two days post-infection, day 5, purification method 2): nearly eliminated; Overt signs of toxicity in neonatal mice (discussion) ([4]; four doses of 40 mg/kg over two days): did not exhibit overt signs of toxicity; Overt signs of toxicity in trtE treated neonatal mice ([4]; oral doses up to 40 mg/kg twice daily for 2 days): no overt toxicity was observed; also recorded: did not observe overt toxicity; also recorded: no overt signs of toxicity; Activity of trtE against Gram positive bacteria [5]: active; Activity of trtE against Gram negative bacteria [6]: active; TC50 (median toxic concentration) for HFF ([7]; 20–30% confluency, 24 hours, cellular ATP): 7900 nM; Selectivity Index, T. gondii vs Human Foreskin fibroblasts ([7]; TC50/EC50): 2633
